Measured values as given in US10227357B2, “Compounds and methods for kinase modulation, and indications therefor” (Plexxikon Inc., priority 2012, dated 2019).

The compounds below were run against T1, c-kit kinase (Homo sapiens, UniProt P10721) (assay: c-Kit biochemical assay, AlphaScreen, 10 μM ATP). Settings: c-kit biochemical inhibitory activity; read-out: Biochemical activity (IC50 μM) Kit.
T1 construct: The c-kit (or kinase domain thereof) is an active kinase in AlphaScreen; poly-Histidine tag (in-house protein only) (cleaved yes); host or cells: E. coli BL21(DE3)RIL, co-expressed with PTP1B
T1 sequence (P10721 26-976): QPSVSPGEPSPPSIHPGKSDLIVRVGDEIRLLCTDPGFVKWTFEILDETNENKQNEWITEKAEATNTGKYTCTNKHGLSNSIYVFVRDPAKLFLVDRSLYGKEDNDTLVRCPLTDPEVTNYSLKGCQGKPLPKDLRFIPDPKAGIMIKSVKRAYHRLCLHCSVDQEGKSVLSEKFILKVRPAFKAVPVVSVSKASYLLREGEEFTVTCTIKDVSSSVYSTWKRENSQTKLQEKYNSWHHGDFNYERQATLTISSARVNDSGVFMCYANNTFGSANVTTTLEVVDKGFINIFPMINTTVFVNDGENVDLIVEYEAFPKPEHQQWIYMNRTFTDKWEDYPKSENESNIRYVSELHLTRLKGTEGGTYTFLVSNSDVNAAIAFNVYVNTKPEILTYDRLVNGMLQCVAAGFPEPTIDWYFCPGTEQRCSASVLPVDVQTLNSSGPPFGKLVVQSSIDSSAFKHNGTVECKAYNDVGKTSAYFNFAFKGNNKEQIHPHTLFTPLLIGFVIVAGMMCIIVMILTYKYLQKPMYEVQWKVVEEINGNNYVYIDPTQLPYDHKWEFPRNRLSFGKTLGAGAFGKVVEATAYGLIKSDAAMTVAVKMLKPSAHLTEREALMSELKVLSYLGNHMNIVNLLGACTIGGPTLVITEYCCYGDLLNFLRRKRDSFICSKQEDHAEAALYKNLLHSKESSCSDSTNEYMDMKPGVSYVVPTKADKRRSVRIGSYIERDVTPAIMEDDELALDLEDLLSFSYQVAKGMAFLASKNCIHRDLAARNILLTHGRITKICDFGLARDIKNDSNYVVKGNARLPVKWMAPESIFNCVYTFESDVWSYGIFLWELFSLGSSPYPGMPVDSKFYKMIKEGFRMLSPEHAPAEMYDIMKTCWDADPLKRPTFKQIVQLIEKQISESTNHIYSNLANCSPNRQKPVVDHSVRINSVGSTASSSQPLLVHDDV
Method: IC50 values are determined with respect to inhibition of c-Kit kinase activity, where inhibition of phosphorylation of a peptide substrate is measured as a function of compound concentration. Compounds to be tested were dissolved in DMSO to a concentration of 20 mM. These were diluted 30 μl into 120 μl of DMSO (4 mM) and 1 μl was added to an assay plate. These were then serially diluted 1:3 (50 μl to 100 μl DMSO) for a total of 8 points. Plates were prepared such that each kinase reaction is 20 μl in 1× kinase buffer (50 mM HEPES, pH 7.2, 5 mM MgCl2, 5 mM MnCl2, 0.01% NP-40, 0.2% BSA), 5% DMSO and 10 μM ATP. […] C-kit kinase was at 0.1 ng per sample. After incubation of the kinase reaction for 1 hour at room temperature, 5 μl of donor beads (Streptavidin coated beads (Perkin Elmer Life Science) final concentration 1 μg/ml) in stop buffer (50 mM EDTA in 1× kinase buffer) was added, the sample was mixed and incubated for 20 minutes at room temperature before adding 5 μl of acceptor beads (PY20 coated beads (Perkin Elmer Life Science) final concentration 1 μg/ml) in stop buffer. The samples were incubated for 60 minutes at room temperature and the signal per well was read on AlphaQuest reader. […] The signal vs. compound concentration was used to determine the IC50.
Complementary DNA cloned from various human tissues were purchased from Invitrogen, and these were used as substrates in the PCR reactions. Specific custom synthetic oligonucleotide primers were designed to initiate the PCR product, and also to provide the appropriate restriction enzyme cleavage sites for ligation with the plasmids. The entire sequence encoding the enzyme was made through a gene synthesis procedure, using custom synthetic oligonucleotides covering the entire coding sequence (Invitrogen, see below).
The plasmid used for ligation with the kinase-encoding inserts was derivative of pET (Novagen) for expression using E. coli. The Kit kinase was engineered to include a Histidine tag for purification using metal affinity chromatography. The kinase-encoding plasmid was engineered as bicistronic mRNA to co-express a second protein that modifies the kinase protein during its expression in the host cell. Protein tyrosine phosphatase 1B (PTP), was co-expressed for dephosphorylation of the phospho-Tyrosines.
For protein expression, the plasmid containing the Kit gene was transformed into E. coli strains BL21(DE3)RIL and transformants selected for growth on LB agar plates containing appropriate antibiotics. Single colonies were grown overnight at 37° C. in 200 ml TB (Terrific broth) media. 16×1 L of fresh TB media in 2.8 L flasks were inoculated with 10 ml of overnight culture and grown with constant shaking at 37° C. Once cultures reached an absorbance of 1.0 at 600 nm, IPTG was added and cultures were allowed to grow for a further 12 to 18 hrs at temperatures ranging from 12-30° C. Cells were harvested by centrifugation and pellets frozen at […] until ready for lysis.
For protein Purification; frozen E. coli cell pellets were resuspended in lysis buffer and lysed using standard mechanical methods. Protein was purified via poly-Histidine tags using immobilized metal affinity purification IMAC. The Kit kinase was purified using a 3 step purification process utilizing; IMAC, size exclusion chromatography and ion exchange chromatography. The poly-Histidine tag was removed using Thrombin (Calbiochem).
O=C(c1ccc(Cl)cc1)c1cc2c(N3CCN(C(=O)NCc4ccc(F)cc4)CC3)ncnc2[nH]1 [P-0207, 4-[6-(4-chlorobenzoyl)-7H-pyrrolo[2,3-d]pyrimidin-4-yl]-N-[(4-fluorophenyl)methyl]piperazine-1-carboxamide] showed an IC50 of 10 to 200 µM. Work on O=S(=O)(Nc1ccc(-c2ncnc3[nH]c(C(F)F)cc23)c(F)c1)c1ccc(Cl)cc1 [P-0310, 4-chloro-N-[4-[6-(difluoromethyl)-7H-pyrrolo[2,3-d]pyrimidin-4-yl]-3-fluoro-phenyl]benzenesulfonamide] yielded an IC50 of 1 to 10 µM. COc1cc(NC(=O)N2CCN(c3ncnc4[nH]cc(-c5ccccc5)c34)CC2)cc(OC)c1 [P-0216, N-(3,5-dimethoxyphenyl)-4-(5-phenyl-7H-pyrrolo[2,3-d]pyrimidin-4-yl)piperazine-1-carboxamide] gave an IC50 of 10 to 200 µM. Compound O=C(Nc1ccccc1)N1CCN(c2ncnc3[nH]ccc23)CC1 [P-0205, N-phenyl-4-(7H-pyrrolo[2,3-d]pyrimidin-4-yl)piperazine-1-carboxamide] has an IC50 of 10 to 200 µM. In the case of CS(=O)(=O)Nc1cc(F)c(-c2ncnc3[nH]c(-c4ccc(F)cc4)cc23)cc1F [P-0356, N-[2,5-difluoro-4-[6-(4-fluorophenyl)-7H-pyrrolo[2,3-d]pyrimidin-4-yl]phenyl]methanesulfonamide], the IC50 is reported as 0.0001 to 1 µM. With CN(C)c1ccc(NC(=O)N2CCN(c3ncnc4[nH]ccc34)CC2)cc1 [P-0132, N-(4-dimethylaminophenyl)-4-(7H-pyrrolo[2,3-d]pyrimidin-4-yl)piperazine-1-carboxamide] the IC50 was 1 to 10 µM. Compound CCOc1ccc(NC(=O)NC2CCN(c3ncnc4[nH]ccc34)CC2)cc1 [P-0534, 1-(4-ethoxyphenyl)-3-[1-(7H-pyrrolo[2,3-d]pyrimidin-4-yl)-4-piperidyl]urea] has an IC50 of 10 to 200 µM. Compound O=S(=O)(c1ccccc1)N1CCN(c2ncnc3[nH]ccc23)CC1 [P-0200, 4-[4-(benzenesulfonyl)piperazin-1-yl]-7H-pyrrolo[2,3-d]pyrimidine] has an IC50 of 10 to 200 µM. Work on CS(=O)(=O)NC1CCN(c2ncnc3[nH]c(C#CC4CC4)cc23)CC1 [P-0472, N-[1-[6-(2-cyclopropylethynyl)-7H-pyrrolo[2,3-d]pyrimidin-4-yl]-4-piperidyl]methanesulfonamide] yielded an IC50 of 10 to 200 µM. For COc1cc2ncnc(-c3ccc(S(N)(=O)=O)cc3)c2cc1OC [P-0278, 4-(6,7-dimethoxyquinazolin-4-yl)benzenesulfonamide], the IC50 was 10 to 200 µM. With COc1ccc(NC(=O)N2CCN(c3ncnc4[nH]ccc34)CC2)cc1OC [P-0173, N-(3,4-dimethoxyphenyl)-4-(7H-pyrrolo[2,3-d]pyrimidin-4-yl)piperazine-1-carboxamide] the IC50 was 10 to 200 µM. With N#Cc1c[nH]c2ncnc(N3CCN(C(=O)NCc4ccc(F)cc4)CC3)c12 [P-0158, 4-(5-cyano-7H-pyrrolo[2,3-d]pyrimidin-4-yl)-N-[(4-fluorophenyl)methyl]piperazine-1-carboxamide] the IC50 was 10 to 200 µM. For C[C@H](NC(=O)N1CCN(c2ncnc3[nH]c(-c4ccc(F)cc4)cc23)CC1)c1ccc(Cl)cc1 [P-0178, N-[(1S)-1-(4-chlorophenyl)ethyl]-4-[6-(4-fluorophenyl)-7H-pyrrolo[2,3-d]pyrimidin-4-yl]piperazine-1-carboxamide], the IC50 was 10 to 200 µM. Work on Cc1cc2c(-c3ccc(NS(=O)(=O)c4ccccc4F)c(F)c3)ncnc2[nH]1 [P-0348, 2-fluoro-N-[2-fluoro-4-(6-methyl-7H-pyrrolo[2,3-d]pyrimidin-4-yl)phenyl]benzenesulfonamide] yielded an IC50 of 0.0001 to 1 µM. Work on CC(C)(C)c1cc2ncnc(N3CCN(C(=O)Nc4ccc(F)cc4)CC3)c2s1 [P-0639, 4-(6-tert-butylthieno[3,2-d]pyrimidin-4-yl)-N-(4-fluorophenyl)piperazine-1-carboxamide] yielded an IC50 of 10 to 200 µM. CCCS(=O)(=O)N1CCN(c2ncnc3[nH]ccc23)CC1 [P-0199, 4-(4-propylsulfonylpiperazin-1-yl)-7H-pyrrolo[2,3-d]pyrimidine] showed an IC50 of 10 to 200 µM. Cc1ccc(-c2cc3c(C4=CCC(NS(=O)(=O)c5ccc(OC(F)(F)F)cc5)CC4)ncnc3[nH]2)cn1 (stereo not drawn) [P-0544, N-[4-[6-(6-methyl-3-pyridyl)-7H-pyrrolo[2,3-d]pyrimidin-4-yl]cyclohex-3-en-1-yl]-4-(trifluoromethoxy)benzenesulfonamide] gave an IC50 of 10 to 200 µM. Work on CCCNC(=O)NC1CCN(c2ncnc3[nH]ccc23)CC1 [P-0536, 1-propyl-3-[1-(7H-pyrrolo[2,3-d]pyrimidin-4-yl)-4-piperidyl]urea] yielded an IC50 of 10 to 200 µM. In the case of O=C(Nc1ccccc1)NC1CCN(c2ncnc3[nH]ccc23)CC1 [P-0538, 1-phenyl-3-[1-(7H-pyrrolo[2,3-d]pyrimidin-4-yl)-4-piperidyl]urea], the IC50 is reported as 10 to 200 µM. CN(C)c1ccc(NC(=O)NC2CCN(c3ncnc4[nH]ccc34)CC2)cc1 [P-0506, 1-(4-dimethylaminophenyl)-3-[1-(7H-pyrrolo[2,3-d]pyrimidin-4-yl)-4-piperidyl]urea] showed an IC50 of 10 to 200 µM. For O=C(Nc1ccc(F)c(F)c1)N1CCN(c2ncnc3[nH]ccc23)CC1 [P-0175, N-(3,4-difluorophenyl)-4-(7H-pyrrolo[2,3-d]pyrimidin-4-yl)piperazine-1-carboxamide], the IC50 was 10 to 200 µM. O=C(NC1CCN(c2ncnc3[nH]ccc23)CC1)C1CCCCC1 [P-0528, N-[1-(7H-pyrrolo[2,3-d]pyrimidin-4-yl)-4-piperidyl]cyclohexanecarboxamide] showed an IC50 of 10 to 200 µM. COc1cc2ncnc(-c3ccc(S(=O)(=O)NC4CC4)cc3)c2cc1OC [P-0277, N-cyclopropyl-4-(6,7-dimethoxyquinazolin-4-yl)benzenesulfonamide] showed an IC50 of 10 to 200 µM. O=C(NC1CCN(c2ncnc3[nH]ccc23)CC1)C1CCCC1 [P-0529, N-[1-(7H-pyrrolo[2,3-d]pyrimidin-4-yl)-4-piperidyl]cyclopentanecarboxamide] gave an IC50 of 10 to 200 µM. In the case of COc1cc2ncnc(-c3cccc(NS(=O)(=O)C4CC4)c3)c2cc1OC [P-0279, N-[3-(6,7-dimethoxyquinazolin-4-yl)phenyl]cyclopropanesulfonamide], the IC50 is reported as 10 to 200 µM. COc1cc2ncnc(-c3ccc(NS(=O)(=O)C4CC4)cc3)c2cc1OC [P-0280, N-[4-(6,7-dimethoxyquinazolin-4-yl)phenyl]cyclopropanesulfonamide] showed an IC50 of 10 to 200 µM. C[C@H](NC(=O)N1CC2CCC1CN2c1ncnc2cc(-c3ccc(F)cc3)sc12)c1cccc(Cl)c1 (stereo partly drawn) [P-0565, N-[(1S)-1-(3-chlorophenyl)ethyl]-5-[6-(4-fluorophenyl)thieno[3,2-d]pyrimidin-4-yl]-2,5-diazabicyclo[2.2.2]octane-2-carboxamide] showed an IC50 of 1 to 10 µM. In the case of Cc1cc2c(-c3ccc(NS(=O)(=O)C4CC4)cc3)ncnc2[nH]1 [P-0377, N-[4-(6-methyl-7H-pyrrolo[2,3-d]pyrimidin-4-yl)phenyl]cyclopropanesulfonamide], the IC50 is reported as 10 to 200 µM. Work on CCc1ccc(C(=O)N2CCN(c3ncnc4[nH]ccc34)CC2)cc1 [P-0197, (4-ethylphenyl)-[4-(7H-pyrrolo[2,3-d]pyrimidin-4-yl)piperazin-1-yl]methanone] yielded an IC50 of 1 to 10 µM. For O=C(Nc1ccc(Cl)cc1)NC1CCN(c2ncnc3[nH]ccc23)CC1 [P-0519, 1-(4-chlorophenyl)-3-[1-(7H-pyrrolo[2,3-d]pyrimidin-4-yl)-4-piperidyl]urea], the IC50 was 10 to 200 µM. In the case of COc1ccc(NC(=O)N2CCN(c3ncnc4[nH]c(I)cc34)CC2)cc1 [P-0244, 4-(6-iodo-7H-pyrrolo[2,3-d]pyrimidin-4-yl)-N-(4-methoxyphenyl)piperazine-1-carboxamide], the IC50 is reported as 1 to 10 µM. N#Cc1ccc(-c2cc3c(N4CCC(NS(=O)(=O)c5ccc(OC(F)(F)F)cc5)CC4)ncnc3[nH]2)cc1 [P-0464, N-[1-[6-(4-cyanophenyl)-7H-pyrrolo[2,3-d]pyrimidin-4-yl]-4-piperidyl]-4-(trifluoromethoxy)benzenesulfonamide] gave an IC50 of 10 to 200 µM. O=C(NC(=O)c1ccccc1)NC1CCN(c2ncnc3[nH]ccc23)CC1 [P-0522, N-[[1-(7H-pyrrolo[2,3-d]pyrimidin-4-yl)-4-piperidyl]carbamoyl]benzamide] gave an IC50 of 10 to 200 µM.
